DBAASP
Values after ≈ are worked out from the molar mass of the structure shown. Each block holds one compound with its values, some of them ahead of it.

What was measured:
Assay in all cases: ≥ marks a high value that may be exact or a test limit, other limits are often not marked, values filed in µg/mL are converted to µM
Staphylococcus aureus MR = system: Staphylococcus aureus MR
Escherichia coli = system: Escherichia coli
[1] = system: Enterococcus faecalis NCTC 12203
Escherichia coli UB1005 = system: Escherichia coli UB1005
[2] = system: Enterococcus faecalis ATCC 29212
[3] = system: Escherichia coli ATCC 25922
[4] = system: Staphylococcus epidermidis
[5] = system: Staphylococcus aureus ATCC 29213
Pseudomonas aeruginosa = system: Pseudomonas aeruginosa
Serratia marcescens = system: Serratia marcescens
Escherichia coli P4 = system: Escherichia coli P4
Enterobacter cloacae = system: Enterobacter cloacae
Klebsiella pneumoniae = system: Klebsiella pneumoniae
Klebsiella aerogenes = system: Klebsiella aerogenes
[6] = system: Streptococcus mutans CGMCC 1.2500
Escherichia coli AS1.349 = system: Escherichia coli AS1.349
[7] = system: Lactococcus lactis AS1.1690
[8] = system: Enterococcus faecium CGMCC 1.2334
[9] = system: Pseudomonas aeruginosa CGMCC 1.860
[10] = system: Candida albicans CMCC 98001
[11] = system: Klebsiella pneumoniae subsp. pneumoniae CGMCC 1.176
[12] = system: Lactobacillus acidophilus CGMCC 1.1854
[13] = system: Streptococcus salivarius CGMCC 1.2498
[14] = system: Streptococcus sanguinis CGMCC 1.2497
Bacillus cereus AS1.126 = system: Bacillus cereus AS1.126
[15] = system: Staphylococcus aureus AS1.72
[16] = system: Klebsiella aerogenes CGMCC 1.876
[17] = system: Enterobacter cloacae CGMCC 1.58
[18] = system: Enterococcus faecalis CGMCC 1.595
[19] = system: Fusobacterium nucleatum CGMCC 1.2526
[20] = system: Pseudomonas aeruginosa ATCC 27853
[21] = system: Staphylococcus aureus ATCC 25923
[22] = system: Spiroplasma melliferum BC3
Bacillus megaterium KM = system: Bacillus megaterium KM
Escherichia coli K-12 = system: Escherichia coli K-12
[23] = system: Sinorhizobium meliloti 102F34
Micrococcus luteus A270 = system: Micrococcus luteus A270
[24] = system: Salmonella typhimurium CIP 6062
[25] = system: Acholeplasma laidlawii A-PG8
[26] = system: Cryptococcus neoformans Steroform B
[27] = system: Cryptococcus neoformans Steroform D
Candida krusei = system: Candida krusei
[28] = system: Cryptococcus neoformans Steroform A
Bacillus cereus = system: Bacillus cereus
Candida glabrata = system: Candida glabrata
Bacillus megaterium = system: Bacillus megaterium
[29] = system: Staphylococcus haemolyticus
Candida albicans A39 = system: Candida albicans A39
Micrococcus luteus = system: Micrococcus luteus
Yarrowia lipolytica = system: Yarrowia lipolytica
[30] = system: Cryptococcus neoformans Steroform C
Bacillus sp. ATCC 14412 = system: Bacillus sp. ATCC 14412
[31] = system: Staphylococcus aureus ATCC 25023

MIC (Staphylococcus aureus MR): 0.363 µM (≈ 0.5 µg/mL)
MIC (Escherichia coli): 1.45 µM (≈ 2 µg/mL)
MIC [1]: 0.726 µM (≈ 0.999 µg/mL)
MIC (Escherichia coli UB1005): 2.91 µM (≈ 4 µg/mL)
MIC [2]: 0.726 µM (≈ 0.999 µg/mL)
MIC [3]: 1.45 µM (≈ 2 µg/mL)
MIC [4]: 0.182 µM (≈ 0.25 µg/mL)
MIC [5]: 0.363 µM (≈ 0.5 µg/mL)
Structure (SMILES): CC[C@H](C)[C@H](NC(=O)[C@H](CCCCN)NC(=O)[C@@H](N)Cc1c[nH]c2ccccc12)C(=O)N[C@H](C(=O)N[C@@H](Cc1ccccc1)C(=O)N[C@@H](Cc1c[nH]c2ccccc12)C(=O)N[C@@H](Cc1c[nH]c2ccccc12)C(=O)N[C@@H](CCCN=C(N)N)C(=O)N[C@@H](CCCN=C(N)N)C(N)=O)C(C)C [WKIVFWWRR]

MIC (Escherichia coli): 15.3 µM (≈ 45.3 µg/mL)
MIC (Pseudomonas aeruginosa): 43.2 µM (≈ 128 µg/mL)
MIC [3]: 15.3 µM (≈ 45.3 µg/mL)
MIC (Serratia marcescens): ≥ 173 µM
MIC (Escherichia coli P4): 10.8 µM (≈ 32 µg/mL)
MIC (Enterobacter cloacae): 15.3 µM (≈ 45.3 µg/mL)
MIC (Klebsiella pneumoniae): 15.3 µM (≈ 45.3 µg/mL)
MIC (Klebsiella aerogenes): 21.6 µM (≈ 64 µg/mL)
MIC [5]: 21.6 µM (≈ 64 µg/mL)
Structure (SMILES): CC[C@H](C)[C@H](NC(=O)[C@H](Cc1ccccc1)NC(=O)[C@H](CC(N)=O)NC(=O)[C@H](CCCCN)NC(=O)[C@H](CCCN=C(N)N)NC(=O)[C@H](C)NC(=O)[C@H](CCCCN)NC(=O)[C@H](Cc1c[nH]c2ccccc12)NC(=O)[C@@H](N)CCCCN)C(=O)N[C@@H](CCCCN)C(=O)NCC(=O)N[C@@H](CO)C(=O)N[C@@H](CO)C(=O)N[C@@H](CC(C)C)C(=O)NCC(=O)N[C@@H](Cc1c[nH]c2ccccc12)C(=O)N[C@@H](CC(C)C)C(=O)N[C@H](C(=O)N[C@@H](CCC(N)=O)C(=O)N[C@@H](CC(C)C)C(=O)N[C@@H](Cc1ccccc1)C(=O)N[C@@H](CCCN=C(N)N)C(=O)N[C@@H](CCCCN)C(=O)N[C@@H](CCCN=C(N)N)C(=O)O)[C@@H](C)CC [KWKARKNFIKGSSLGWLIQLFRKR]

MIC [6]: 12.5 µM (≈ 17.6 µg/mL)
MIC (Escherichia coli AS1.349): 3.12 µM (≈ 4.4 µg/mL)
MIC [7]: 3.12 µM (≈ 4.4 µg/mL)
MIC [8]: 6.25 µM (≈ 8.81 µg/mL)
MIC [9]: 3.12 µM (≈ 4.4 µg/mL)
MIC [10]: 12.5 µM (≈ 17.6 µg/mL)
MIC [11]: 6.25 µM (≈ 8.81 µg/mL)
MIC [12]: 25 µM (≈ 35.2 µg/mL)
MIC [13]: 6.25 µM (≈ 8.81 µg/mL)
MIC [14]: 3.13 µM (≈ 4.41 µg/mL)
MIC (Bacillus cereus AS1.126): 3.12 µM (≈ 4.4 µg/mL)
MIC [15]: 3.12 µM (≈ 4.4 µg/mL)
MIC [16]: 3.12 µM (≈ 4.4 µg/mL)
MIC [17]: 3.12 µM (≈ 4.4 µg/mL)
MIC [18]: 6.25 µM (≈ 8.81 µg/mL)
MIC [19]: 18.8 µM (≈ 26.4 µg/mL)
Structure (SMILES): CC[C@H](C)[C@H](N)C(=O)N[C@@H](CCCCN)C(=O)N[C@@H](CCCCN)C(=O)N[C@H](C(=O)N[C@H](C(=O)N[C@@H](CO)C(=O)N[C@@H](CCCCN)C(=O)N[C@H](C(=O)N[C@@H](CCCCN)C(=O)N[C@@H](CCCCN)C(=O)N[C@@H](CC(C)C)C(=O)N[C@@H](CC(C)C)C(N)=O)[C@@H](C)CC)C(C)C)[C@@H](C)CC [IKKIVSKIKKLL]

MIC [20]: > 100 µM
MIC [21]: > 100 µM
MIC [22]: ≥ 50 µM
MIC (Bacillus megaterium KM): 3.12 µM (≈ 6.23 µg/mL)
MIC (Escherichia coli K-12): 10 µM (≈ 20 µg/mL)
MIC [23]: 12.5 µM (≈ 25 µg/mL)
MIC (Micrococcus luteus A270): 3 µM (≈ 6 µg/mL)
MIC [24]: ≥ 100 µM
MIC [25]: 12.5 µM (≈ 25 µg/mL)
Structure (SMILES): CC[C@H](C)[C@H](NC(=O)CNC(=O)[C@H](CO)NC(=O)[C@H](C)NC(=O)[C@@H](NC(=O)[C@H](CCCCN)NC(=O)[C@H](CO)NC(=O)[C@H](CCSC)NC(=O)[C@H](Cc1c[nH]c2ccccc12)NC(=O)CN)[C@@H](C)CC)C(=O)NCC(=O)N[C@H](C(=O)N[C@@H](Cc1ccccc1)C(=O)N[C@@H](CC(C)C)C(=O)N[C@@H](CO)C(=O)NCC(=O)N[C@@H](CCSC)C(=O)N[C@@H](CCC(N)=O)C(=O)N[C@@H](CCC(N)=O)C(N)=O)[C@@H](C)O [GWMSKIASGIGTFLSGMQQ]

MIC [26]: 3.16 µM (≈ 8.02 µg/mL)
MIC [27]: 1.13 µM (≈ 2.87 µg/mL)
MIC (Escherichia coli): > 50 µM
MIC (Candida krusei): 7.07 µM (≈ 17.9 µg/mL)
MIC [28]: 3.16 µM (≈ 8.02 µg/mL)
MIC (Bacillus cereus): ≥ 50 µM
MIC (Candida glabrata): 7.07 µM (≈ 17.9 µg/mL)
MIC (Bacillus megaterium): ≥ 50 µM
MIC (Candida albicans A39): 17.7 µM (≈ 44.8 µg/mL)
MIC (Micrococcus luteus): 8.84 µM (≈ 22.4 µg/mL)
MIC (Yarrowia lipolytica): 3.16 µM (≈ 8.02 µg/mL)
MIC [30]: 1.79 µM (≈ 4.53 µg/mL)
MIC (Bacillus sp. ATCC 14412): 4.42 µM (≈ 11.2 µg/mL)
Structure (SMILES): CC[C@H](C)[C@H](NC(=O)[C@H](Cc1ccccc1)NC(=O)[C@@H](NC(=O)[C@@H]1CCCN1C(=O)[C@H](CCCN=C(N)N)NC(=O)[C@H](CO)NC(=O)[C@@H]1CCCN1C(=O)[C@H](CCCCN)NC(=O)[C@H](CCCN=C(N)N)NC(=O)[C@H](CC(C)C)NC(=O)[C@@H]1CCCN1C(=O)[C@H](CCCN=C(N)N)NC(=O)[C@@H](NC(=O)[C@H](Cc1ccc(O)cc1)NC(=O)CNC(=O)[C@H](CO)NC(=O)[C@H](CO)NC(=O)[C@@H](N)Cc1cnc[nH]1)[C@@H](C)O)[C@@H](C)CC)C(=O)N[C@@H](CCCN=C(N)N)C(=O)N1CCC[C@H]1C(=O)N[C@H](C(=O)NCC(N)=O)[C@@H](C)CC [HSSGYTRPLRKPSRPIFIRPIG]
MIC [29]: ≥ 50 µM

MIC [31]: ≥ 125 µM
Structure (SMILES): CC(C)C[C@H](NC(=O)[C@H](CCCN=C(N)N)NC(=O)[C@H](CC(C)C)NC(=O)[C@H](CC(C)C)NC(=O)[C@H](CC(C)C)NC(=O)[C@H](CCCCN)NC(=O)[C@H](CC(C)C)NC(=O)[C@@H](N)CCCN=C(N)N)C(N)=O [RLKLLLRL]
